Patent US20220402901A1 (Bial - R&D Investments, S.A., priority 2019, published 2022)
≈ marks a conversion by molar mass, not a printed value.

What was measured:
[1] = molecular target: T1, Human acid ceramidase (hACR) (Homo sapiens, UniProt Q13510); assay: Acid ceramidase biochemical fluorescent assay (cell lysates overexpressing acid ceramidase, substrate Rbm14-12); conditions: 10 μg lysate protein, 1 hr preincubation at RT, pH 4.5, Rbm14-12 6.3 μM
T1 construct: expressed in transfected cells; lysates of cells overexpressing acid ceramidase
T1 sequence (Q13510 22-395): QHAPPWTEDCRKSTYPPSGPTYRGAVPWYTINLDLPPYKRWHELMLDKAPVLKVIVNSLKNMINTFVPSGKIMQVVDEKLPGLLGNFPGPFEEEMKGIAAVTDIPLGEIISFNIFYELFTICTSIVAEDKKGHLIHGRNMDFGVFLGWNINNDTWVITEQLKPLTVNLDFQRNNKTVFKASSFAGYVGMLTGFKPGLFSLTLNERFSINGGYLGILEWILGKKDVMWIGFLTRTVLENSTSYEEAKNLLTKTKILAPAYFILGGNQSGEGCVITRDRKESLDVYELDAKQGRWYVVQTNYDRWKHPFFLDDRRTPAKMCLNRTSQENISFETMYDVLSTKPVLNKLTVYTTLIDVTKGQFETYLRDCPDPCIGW
Procedure: The ability of exemplary compounds to inhibit acid ceramidase was measured.
Cell lysates overexpressing acid ceramidase were used as the enzyme source for compound potency determination in a biochemical fluorescent assay. Briefly, compounds were preincubated with 10 μg protein of cell lysates in a dose-response manner for 1 hr at RT in the assay buffer containing 25 mM NaAC and 100 mM NaCl, pH 4.5. The reaction was initiated by the addition of substrate Rbm14-12 at a final concentration of 6.3 μM. The reaction was run at RT for 1 hr before it was stopped by the addition of the stopping buffer containing 20% methanol (v/v), 1 mg/ml NaIO4, 0.1 M glycine, pH 10.6. The samples were incubated with the stopping buffer at RT for 1 hr to allow the fluorescent product to be formed. Finally the plate was read with SpectraMax i3 plate reader (Molecular Devices) at ex360 nm and em446 nm. Data were collected and used to determine the IC50 values of compounds by curve fitting to the four-parameter inhibition equation.
The symbol “A” indicates inhibition of less than 0.2 μM; the symbol “B” indicates inhibition in the range of 0.2 μM up to 1 μM; and the symbol “C” indicates inhibition of greater than 1 μM.

[2] = Compound solubility in water; assay type: physicochemical; conditions: read-out: Solubility in H2O

| SMILES | IC50 [1] | solubility [2] |
| --- | --- | --- |
| CC(C)CNC(=O)N1CCC(c2ccc3c(c2)oc(=O)n3C)C[C@@H]1C (stereo partly drawn) [Example 22, N-iso-Butyl (2S)-methyl-4-(3-methyl-2-oxo-1,3-benzoxazol-6-yl)piperidine-1-carboxamide] | 200 to 1000 nM | 235 µM (≈ 81.2 µg/mL) |
| O=C(NCCCCc1ccccc1)N1CCC(c2ccc3[nH]c(=O)oc3c2)CC1 [Example 1, 4-(2-Oxo-3H-1,3-benzoxazol-6-yl)-N-(4-phenylbutyl)piperidine-1-carboxamide] | 200 to 1000 nM | 2.4 µM (≈ 0.944 µg/mL) |
| Cn1c(=O)oc2cccc(C3CCN(C(=O)NCCCCc4ccccc4)CC3)c21 [Example 10, 4-(3-Methyl-2-oxo-1,3-benzoxazol-4-yl)-N-(4-phenylbutyl)piperidine-1-carboxamide] | > 1000 nM | 9 µM (≈ 3.67 µg/mL) |
| Cn1c(=O)oc2cc(C3CCN(C(=O)NCCC4CC4)C(C)(C)C3)ccc21 (stereo not drawn) [Example 29, N-(2-Cyclopropylethyl)-2,2-dimethyl-4-(3-methyl-2-oxo-1,3-benzoxazol-6-yl)piperidine-1-carboxamide] | 200 to 1000 nM | 250 µM (≈ 92.9 µg/mL) |
| CC(C)CNC(=O)N1CCC(c2ccc3c(c2)oc(=O)n3C)CC1 [Example 3, N-iso-Butyl 4-(3-methyl-2-oxo-1,3-benzoxazol-6-yl)piperidine-1-carboxamide] | > 1000 nM | 126 µM (≈ 41.8 µg/mL) |
| CCCCCNC(=O)N1C(c2ccc3c(c2)oc(=O)n3C)COCC1(C)C (stereo not drawn) [Example 43] | < 200 nM | 69.1 µM (≈ 25.9 µg/mL) |

Next, values leading:

| IC50 [1] | solubility [2] | SMILES |
| --- | --- | --- |
| > 1000 nM | 241 µM (≈ 98.4 µg/mL) | Cn1c(=O)oc2cc(C3CNCCN3C(=O)NCCCCc3ccccc3)ccc21 (stereo not drawn) [Example 39, 2-(3-Methyl-2-oxo-1,3-benzoxazol-6-yl)-N-(4-phenylbutyl)piperazine-1-carboxamide] |
| > 1000 nM | 8 µM (≈ 3.26 µg/mL) | Cn1c(=O)oc2cc(C3CCCN(C(=O)NCCCCc4ccccc4)C3)ccc21 (stereo not drawn) [Example 12, 3-(3-Methyl-2-oxo-1,3-benzoxazol-6-yl)-N-(4-phenylbutyl)piperidine-1-carboxamide] |
| 200 to 1000 nM | 0.9 µM (≈ 0.368 µg/mL) | Cn1c(=O)oc2cc(N3CCN(C(=O)NCCc4ccccc4)C(C)(C)C3)ccc21 [Example 51, 2,2-Dimethyl-4-(3-Methyl-2-oxo-1,3-benzoxazol-6-yl)-N-(2-phenylethyl)piperazine-1-carboxamide] |
